Data on 17 compounds can be found in article PMC9437215, “Synthesis and antibacterial activity evaluation of N (7) position-modified balofloxacins” (Frontiers in Chemistry, 2022).

Structures are written as SMILES. Values after ≈ are worked out from the molar mass of the structure shown. Where two headings read alike, the source gives them in different places.

The test system of data set [1] is MRSA. As to the kind of experiment: MIC and MBC determinations in vitro, MRSA. Conditions: MRSA clinical isolate; for MIC: 24 h culture, read-out: MIC; for MBC: solid medium 24 h. Format: cell-based. Here is the method: (§1) The three strains of MRSA, P. aeruginosa, and E. coli used in this experiment were from clinical isolates, which were provided by the People’s Liberation Army 304 Hospital.
(§2) To evaluate the antibacterial activities of newly synthesized N (7) position modified fluoroquinolones, the minimum inhibitory (MIC) and bactericidal (MBC) concentrations of these compounds toward bacteria were measured.

In data set [2] the test system is E. coli. In words: MIC and MBC determinations in vitro, E. coli. Format: cell-based. Particulars: Escherichia coli, E. coli clinical isolate; for MIC: 24 h culture; for MBC: solid medium 24 h. As for the experimental part: as §1, §2
Data set [3] relates to P. aeruginosa. As to the kind of experiment: MIC and MBC determinations in vitro, P. aeruginosa. It is filed as cell-based. Particulars: Pseudomonas aeruginosa, P. aeruginosa clinical isolate; for MIC: 24 h culture, read-out: MIC; for MBC: solid medium 24 h, read-out: MBC. As for the experimental part: as §1, §2
The mark [4] stands for this setting: Staphylococcus aureus, MRSA, 24 h.
Where [5] appears, read: Staphylococcus aureus, MRSA, 24 h, read-out: MBC.

As to `COc1c(N2C[C@@H]3CCCN[C@@H]3C2)c(F)cc2c(=O)c(C(=O)O)cn(C3CC3)c12` [Compound 1f, moxifloxacin, reference compound], the MIC in data set [1] (setting [4]), in data set [2] and in data set [3] was 0.039 µg/mL (≈ 0.0972 µM) in each case. Further, the MBC in data set [1] (setting [5]), in data set [2] and in data set [3] was 0.039 µg/mL (≈ 0.0972 µM) in each case.
`COc1c(N2CC3CCCN(C(C)=O)C3C2)c(F)cc2c(=O)c(C(=O)O)cn(C3CC3)c12` (centres unmarked) [Compound 2-f, 7-(1-Acetyloctahydro-6H-pyrrolo[3,4-b]pyridin-6-yl)-1-cyclopropyl-6-fluoro-8-methoxy-4-oxo-1,4-dihydroquinoline-3-carboxylic acid]: the MIC in data set [1] (setting [4]), in data set [2] and in data set [3] was 0.313 µg/mL (≈ 0.706 µM) throughout. The MBC in data set [1] (setting [5]), in data set [2] and in data set [3] was 0.625 µg/mL (≈ 1.41 µM) each time.
Regarding `CCC(=O)N(C)C1CCCN(c2c(F)cc3c(=O)c(C(=O)O)cn(C4CC4)c3c2OC)C1` (centres unmarked) [Compound 3-e, 1-Cyclopropyl-6-fluoro-8-methoxy-7-(3-(N-methylpropionamido)piperidin-1-yl)-4-oxo-1,4-dihydroquinoline-3-carboxylic acid], the MIC in data set [1] (setting [4]) worked out at 0.039 µg/mL (≈ 0.0875 µM); in data set [2], 5 µg/mL (≈ 11.2 µM); in data set [3] it was 0.078 µg/mL (≈ 0.175 µM). The MBC in data set [1] (setting [5]) came to 0.078 µg/mL (≈ 0.175 µM); in data set [2], 10 µg/mL (≈ 22.4 µM); in data set [3], 0.078 µg/mL (≈ 0.175 µM).
For `CCCC(=O)N(C)C1CCCN(c2c(F)cc3c(=O)c(C(=O)O)cn(C4CC4)c3c2OC)C1` (centres unmarked) [Compound 4-e, 1-Cyclopropyl-6-fluoro-8-methoxy-7-(3-(N-methylbutyramido)piperidin-1-yl)-4-oxo-1,4-dihydroquinoline-3-carboxylic acid], the MIC in data set [1] (setting [4]) turned out to be 0.039 µg/mL (≈ 0.0849 µM); in data set [2], 5 µg/mL (≈ 10.9 µM); in data set [3], 0.078 µg/mL (≈ 0.17 µM). In addition, the MBC stood at 0.078 µg/mL (≈ 0.17 µM) in data set [1] (setting [5]), 20 µg/mL (≈ 43.5 µM) in data set [2] and 0.078 µg/mL (≈ 0.17 µM) in data set [3].
Turning to `CCCCC(=O)N(C)C1CCCN(c2c(F)cc3c(=O)c(C(=O)O)cn(C4CC4)c3c2OC)C1` (centres unmarked) [Compound 5-e, 1-Cyclopropyl-6-fluoro-8-methoxy-7-(3-(N-methylpentanamido)piperidin-1-yl)-4-oxo-1,4-dihydroquinoline-3-carboxylic acid], the MIC in data set [1] (setting [4]) turned out to be 0.078 µg/mL (≈ 0.165 µM); in data set [2], 10 µg/mL (≈ 21.1 µM); in data set [3], 0.078 µg/mL (≈ 0.165 µM). For the same compound, the MBC in data set [1] (setting [5]) came to 0.156 µg/mL (≈ 0.329 µM); in data set [2], 20 µg/mL (≈ 42.2 µM); in data set [3], 0.156 µg/mL (≈ 0.329 µM).
On to `CCCCCC(=O)N(C)C1CCCN(c2c(F)cc3c(=O)c(C(=O)O)cn(C4CC4)c3c2OC)C1` (centres unmarked) [Compound 6-e, 1-Cyclopropyl-6-fluoro-8-methoxy-7-(3-(N-methylhexanamido)piperidin-1-yl)-4-oxo-1,4-dihydroquinoline-3-carboxylic acid], for which the results for the MIC in data set [1] (setting [4]), in data set [2] and in data set [3] were 0.156 µg/mL (≈ 0.32 µM), 20 µg/mL (≈ 41 µM) and 0.313 µg/mL (≈ 0.642 µM), respectively. Also, the figures for the MBC in data set [1] (setting [5]), in data set [2] and in data set [3] were 0.625 µg/mL (≈ 1.28 µM), 20 µg/mL (≈ 41 µM) and 0.625 µg/mL (≈ 1.28 µM), respectively.
Consider `CCCCCCC(=O)N(C)C1CCCN(c2c(F)cc3c(=O)c(C(=O)O)cn(C4CC4)c3c2OC)C1` (centres unmarked) [Compound 7-e, 1-Cyclopropyl-6-fluoro-8-methoxy-7-(3-(N-methylheptanamido)piperidin-1-yl)-4-oxo-1,4-dihydroquinoline-3-carboxylic acid], for which the MIC in data set [1] (setting [4]) is 0.313 µg/mL (≈ 0.624 µM); in data set [2], over 40 µg/mL; in data set [3], 0.625 µg/mL (≈ 1.25 µM). Moreover, the MBC in data set [1] (setting [5]) is 0.625 µg/mL (≈ 1.25 µM); in data set [2], over 40 µg/mL; in data set [3], 1.25 µg/mL (≈ 2.49 µM).
Regarding `CCCCCCCC(=O)N(C)C1CCCN(c2c(F)cc3c(=O)c(C(=O)O)cn(C4CC4)c3c2OC)C1` (centres unmarked) [Compound 8-e, 1-Cyclopropyl-6-fluoro-8-methoxy-7-(3-(N-methyloctanamido)piperidin-1-yl)-4-oxo-1,4-dihydroquinoline-3-carboxylic acid], the melting point was 68.2 to 70 °C. The MIC in data set [1] (setting [4]) came out at 1.25 µg/mL (≈ 2.42 µM). Besides, in data set [1] (setting [5]), the MBC was determined as 5 µg/mL (≈ 9.7 µM). In data set [2], this compound yielded an MIC of over 40 µg/mL and an MBC of over 40 µg/mL. In addition, in data set [3], the MIC amounted to 1.25 µg/mL (≈ 2.42 µM) and the MBC came out at 5 µg/mL (≈ 9.7 µM).
`CCCCCCCCCC(=O)N(C)C1CCCN(c2c(F)cc3c(=O)c(C(=O)O)cn(C4CC4)c3c2OC)C1` (centres unmarked) [Compound 10-e, 1-Cyclopropyl-6-fluoro-8-methoxy-7-(3-(N-methyldecanamido)piperidin-1-yl)-4-oxo-1,4-dihydroquinoline-3-carboxylic acid]: the melting point lay within 65.2 to 68.1 °C. Besides, in data set [1] (setting [4]), the MIC is 5 µg/mL (≈ 9.2 µM). Besides, the MBC in data set [1] (setting [5]) stood at 20 µg/mL (≈ 36.8 µM). In addition, in data set [2], the MIC is over 40 µg/mL and the MBC was over 40 µg/mL. Besides, in data set [3], the MIC was 5 µg/mL (≈ 9.2 µM) and the MBC is 20 µg/mL (≈ 36.8 µM).
With `COc1c(N2CCCC(N(C)C(=O)C3CC3)C2)c(F)cc2c(=O)c(C(=O)O)cn(C3CC3)c12` (centres unmarked) [Compound 11-e, 1-Cyclopropyl-6-fluoro-8-methoxy-7-(3-(N-methylcyclopropanecarboxamido)piperidin-1-yl)-4-oxo-1,4-dihydroquinoline-3-carboxylic acid], the melting point was in the range of 104.6 to 106.5 °C. The MIC in data set [1] (setting [4]) worked out at 0.039 µg/mL (≈ 0.0852 µM). The MBC in data set [1] (setting [5]) was determined as 0.078 µg/mL (≈ 0.17 µM). In data set [2], this compound displayed an MIC of 10 µg/mL (≈ 21.9 µM) and an MBC of 20 µg/mL (≈ 43.7 µM). Further, in data set [3], the MIC came out at 0.078 µg/mL (≈ 0.17 µM) and the MBC worked out at 0.156 µg/mL (≈ 0.341 µM).
As for `COc1c(N2CCCC(N(C)C(=O)c3ccccc3)C2)c(F)cc2c(=O)c(C(=O)O)cn(C3CC3)c12` (centres unmarked) [Compound 12-e, 1-Cyclopropyl-6-fluoro-8-methoxy-7-(3-(N-methylbenzamido)piperidin-1-yl)-4-oxo-1,4-dihydroquinoline-3-carboxylic acid], the MIC in data set [1] (setting [4]) stood at 0.078 µg/mL (≈ 0.158 µM); in data set [2] it was 20 µg/mL (≈ 40.5 µM); in data set [3] it was 0.156 µg/mL (≈ 0.316 µM). Further, the MBC in data set [1] (setting [5]) came to 0.313 µg/mL (≈ 0.634 µM); in data set [2] it was 20 µg/mL (≈ 40.5 µM); in data set [3], 0.313 µg/mL (≈ 0.634 µM).
With `COc1c(N2CCCC(N(C)C(=O)c3cccnc3)C2)c(F)cc2c(=O)c(C(=O)O)cn(C3CC3)c12` (centres unmarked) [Compound 15-e, 1-Cyclopropyl-6-fluoro-8-methoxy-7-(3-(N-methylnicotinamido)piperidin-1-yl)-4-oxo-1,4-dihydroquinoline-3-carboxylic acid], the MIC stood at 0.078 µg/mL (≈ 0.158 µM) in data set [1] (setting [4]), 10 µg/mL (≈ 20.2 µM) in data set [2] and 0.078 µg/mL (≈ 0.158 µM) in data set [3]. Besides, the figures for the MBC in data set [1] (setting [5]), in data set [2] and in data set [3] were 0.156 µg/mL (≈ 0.315 µM), 20 µg/mL (≈ 40.4 µM) and 0.156 µg/mL (≈ 0.315 µM), respectively.
`COc1c(N2CCCC(N(C)C(=O)C(C)N)C2)c(F)cc2c(=O)c(C(=O)O)cn(C3CC3)c12` (centres unmarked) [Compound 19-e, 7-(3-(2-Amino-N-methylpropanamido)piperidin-1-yl)-1-cyclopropyl-6-fluoro-8-methoxy-4-oxo-1,4-dihydroquinoline-3-carboxylic acid]: the MIC is 1.56 µg/mL (≈ 3.39 µM) in data set [1] (setting [4]), 12.5 µg/mL (≈ 27.1 µM) in data set [2] and 0.39 µg/mL (≈ 0.847 µM) in data set [3]. Besides, the figures for the MBC in data set [1] (setting [5]), in data set [2] and in data set [3] were 3.12 µg/mL (≈ 6.79 µM), 25 µg/mL (≈ 54.3 µM) and 1.56 µg/mL (≈ 3.39 µM), respectively.
Take `COc1c(N2CCCC(N(C)C(=O)CN)C2)c(F)cc2c(=O)c(C(=O)O)cn(C3CC3)c12` (centres unmarked) [Compound 20-e, 7-(3-(2-Amino-N-methylacetamido)piperidin-1-yl)-1-cyclopropyl-6-fluoro-8-methoxy-4-oxo-1,4-dihydroquinoline-3-carboxylic acid]: the results for the MIC in data set [1] (setting [4]), in data set [2] and in data set [3] were 25 µg/mL (≈ 56 µM), 25 µg/mL (≈ 56 µM) and 0.78 µg/mL (≈ 1.75 µM), respectively. Moreover, the MBC is 50 µg/mL (≈ 112 µM) in data set [1] (setting [5]), 50 µg/mL (≈ 112 µM) in data set [2] and 6.25 µg/mL (≈ 14 µM) in data set [3].
As to `COc1c(N2CCCC(N(C)C)C2)c(F)cc2c(=O)c(C(=O)O)cn(C3CC3)c12` (centres unmarked) [Compound 21-e, 1-Cyclopropyl-7-(3-(dimethylamino)piperidin-1-yl)-6-fluoro-8-methoxy-4-oxo-1,4-dihydroquinoline-3-carboxylic acid], the MBC in data set [1] was 0.313 µg/mL (≈ 0.776 µM); in data set [1] (setting [5]) it was 0.31 µg/mL (≈ 0.768 µM); in data set [2], 0.625 µg/mL (≈ 1.55 µM); in data set [3] it was 0.313 µg/mL (≈ 0.776 µM). For the same compound, the MIC in data set [1] (setting [4]) was 0.078 µg/mL (≈ 0.193 µM); in data set [2], 0.625 µg/mL (≈ 1.55 µM); in data set [3], 0.313 µg/mL (≈ 0.776 µM).
Turning to `COc1c(N2CCCC(N(C)C(=O)Cn3cncn3)C2)c(F)cc2c(=O)c(C(=O)O)cn(C3CC3)c12` (centres unmarked) [Compound e-1, 1-Cyclopropyl-6-fluoro-8-methoxy-7-(3-(N-methyl-2-(1H-1,2,4-triazol-1-yl)acetamido)piperidin-1-yl)-4-oxo-1,4-dihydroquinoline-3-carboxylic acid], the minimal bactericidal concentration (MBC) in data set [1] is 0.313 µg/mL (≈ 0.628 µM); in data set [1] (setting [5]), 0.312 µg/mL (≈ 0.626 µM); in data set [2] it was 0.313 µg/mL (≈ 0.628 µM); in data set [3], 0.313 µg/mL (≈ 0.628 µM). For the same compound, the MIC in data set [1] (setting [4]), in data set [2] and in data set [3] was 0.156 µg/mL (≈ 0.313 µM) in each case.
Turning to `COc1c(N2CC3CCCN(C(=O)Cn4cncn4)C3C2)c(F)cc2c(=O)c(C(=O)O)cn(C3CC3)c12` (centres unmarked) [Compound f-1, 7-(1-(2-(1H-1,2,4-Triazol-1-yl)acetyl)octahydro-6H-pyrrolo[3,4-b]pyridin-6-yl)-1-cyclopropyl-6-fluoro-8-methoxy-4-oxo-1,4-dihydroquinoline-3-carboxylic acid], the MIC in data set [1] (setting [4]) came out at 0.313 µg/mL (≈ 0.613 µM); in data set [2], 0.625 µg/mL (≈ 1.22 µM); in data set [3] it was 1.25 µg/mL (≈ 2.45 µM). Moreover, the MBC in data set [1] (setting [5]), in data set [2] and in data set [3] was 2.5 µg/mL (≈ 4.9 µM) in each case.
